Results on 17 molecules are retold here after patent US11370761B2, “Voltage-dependent T-type calcium channel inhibitor” (Nippon Chemiphar Co., Ltd., priority 2017, dated 2022).

A value given as a limit tells only on which side of the number the result lay.

In experiment [1] the target is T1, human Cav3.2 channel (Homo sapiens, UniProt O95180).
T1 construct: expressed in transfected cells
In words: Intracellular calcium concentration measurement in human Cav3.2 channel expressing stable cell line (Pharmacological Test 1). In kind it is cell-based. Conditions: HEK293 cells stably expressing human Cav3.2, Fluo-4 AM fluorescence, KCl stimulation; read-out: Cav3.2 channel inhibitory action. The text has this: (1) Construction of Human Cav3.2 Channel Expressing Stable Cell Line
A sequence in which a HindIII site and a kozak sequence (GCCACC) was provided on a 5′ side of a human Cav3.2 channel open reading frame (ORF) gene and a KpnI site was provided on a 3′ side thereof was incorporated into pcDNA3.1(+) (Thermo Fisher Scientific #V790-20), and the resultant was transfected into a HEK293 cell (ATCC No. CRL-1573) according to a protocol of FuGENE (registered trademark) HD Transfection Reagent (Promega #E2311).
(2) Method of Measuring Intracellular Calcium Concentration
The human Cav3.2 channel expressing stable cell line prepared by the test method (1) was seeded in a 96-well plate using a Dulbecco's modified Eagle's medium (DMEM medium) containing 10% fetal bovine serum (FBS), followed by culturing 37° C. for 48 hours under a 5% CO2 condition. Thereafter, the medium was removed, and each well washed with an A buffer was treated with 80 μL of a fluorescent dye solution containing a liquid mixture of 22 μg of a calcium fluorescent indicator Fluo-4 AM (Dojindo Molecular Technologies, Inc., #F311), 20 μL of dimethyl sulfoxide (DMSO), 1 μL of 10% Pluronic F-127 (Thermo Fisher Scientific #P6866), and 4 mL of the A buffer. After being left to stand for 45 minutes at room temperature under a light shielding condition, the cells were washed with a B buffer. In DMSO having the same final concentration as the test compound as a negative control, and the test compound dissolved in DMSO to have a final concentration of 0.1%, each test compound concentration solution containing the B buffer was added to each well. The cells were left to stand for additional 15 minutes at room temperature under a light shielding condition, and were measured using microplate reader EnVision (PerkinElmer Co., Ltd.) by the following method. First, after measuring background fluorescence in each well, an ionophore was added, and baseline fluorescence was measured. Thereafter, B buffer containing added KCl at a concentration of 83.8 mM was added to each well, and an increase in fluorescence due to calcium influx caused by the stimulation was measured for 10 seconds. Inhibition percentage was calculated from the maximum fluorescence increase value from the baseline, and an IC50 value was calculated by plotting a logarithmic value of the test compound concentration and inhibition activity. The measurement was performed by observing fluorescence of 510 nm emitted when the cells were irradiated with excitation light of 485 nm.
A buffer: 140 mM NaCl, 5 mM KCl, 1 mM MgCl2, 0.5 mM CaCl2, 10 mM Glucose, 10 mM HEPES, pH 7.3
B buffer: potassium equilibrium potential: −92 mV
For orientation: Calcium assays in cells follow changes in intracellular calcium, usually with a dye or a luminescent sensor.

The target of experiment [2] is T1, human Cav3.2 channel. In words: Electrophysiological evaluation, automated whole-cell patch clamp of Cav3.2 channel current (Pharmacological Test 2). Particulars: for inhibition at 0.3 µM: read-out: Cav3.2 channel current inhibition rate in test compound of 0.3 μM (holding potential of −80 mV) (%); for inhibition at 3 µM: 3 μM test compound, holding potential −100 mV, read-out: Cav3.2 channel current inhibition rate in test compound of 3 μM (holding potential of −100 mV) (%). In kind it is cell-based. How it is done: The human Cav3.2 channel expressing stable cell line prepared by the test method (1) of Example 36 was seeded in a 10-cm dish using a DMEM medium containing 10% FBS, followed by culturing 37° C. for 24 hours under a 5% CO2 condition. The cells were detached using Accutase, and suspended in ice-cooled extracellular fluid for use. A Cav3.2 channel current was measured using an automated patch clamp system (Port-a-Patch; Nanion Technologies, EPC-10; HEKA Elektronik GmbH, Patchmaster; HEKA Elektronik GmbH) and buffers shown below, by a whole-cell patch-clamp method. The measurement of the Cav3.2 channel current was performed at room temperature, a measurement condition was a holding potential of −80 mV, a depolarization potential was −20 mV, a depolarization time was 100 msec, and a depolarization frequency was 10 sec. The Cav3.2 channel current was a peak value of an inward current observed at the time of depolarization to −20 mV.
The test compound was obtained by diluting a DMSO solution 1000 times with extracellular fluid to prepare a solution having a target concentration. The test compound was applied using an external perfusion system (Nanion Technologies) until the Cav3.2 channel current was stabilized, and a maximum of five concentrations from the low concentration side were cumulatively applied. An inhibition rate of the test compound was calculated from a change rate between a current value immediately before application of the test compound and the Cav3.2 channel current after application of the test compound (in a condition of holding potential of −80 mV, a concentration of the test compound was 0.3 μM, and in a condition of holding potential of −100 mV, a concentration of the test compound was 3 μM).
Extracellular fluid: 135 mM NaCl, 4 mM KCl, 1 mM MgCl2, 5 mM CaCl2, 5 mM D-Glucose, 10 mM HEPES, pH 7.4
Electrode internal fluid: 10 mM NaCl, 10 mM HEPES, 50 mM CsCl, 60 mM Cs-Fluoride, 20 mM EGTA, pH 7.2
For orientation: The patch-clamp technique gives a direct electrical read-out from membranes.

Setting [3] is: 0.3 μM test compound, holding potential −80 mV, depolarization to −20 mV.

T1 sequence (O95180 whole entry): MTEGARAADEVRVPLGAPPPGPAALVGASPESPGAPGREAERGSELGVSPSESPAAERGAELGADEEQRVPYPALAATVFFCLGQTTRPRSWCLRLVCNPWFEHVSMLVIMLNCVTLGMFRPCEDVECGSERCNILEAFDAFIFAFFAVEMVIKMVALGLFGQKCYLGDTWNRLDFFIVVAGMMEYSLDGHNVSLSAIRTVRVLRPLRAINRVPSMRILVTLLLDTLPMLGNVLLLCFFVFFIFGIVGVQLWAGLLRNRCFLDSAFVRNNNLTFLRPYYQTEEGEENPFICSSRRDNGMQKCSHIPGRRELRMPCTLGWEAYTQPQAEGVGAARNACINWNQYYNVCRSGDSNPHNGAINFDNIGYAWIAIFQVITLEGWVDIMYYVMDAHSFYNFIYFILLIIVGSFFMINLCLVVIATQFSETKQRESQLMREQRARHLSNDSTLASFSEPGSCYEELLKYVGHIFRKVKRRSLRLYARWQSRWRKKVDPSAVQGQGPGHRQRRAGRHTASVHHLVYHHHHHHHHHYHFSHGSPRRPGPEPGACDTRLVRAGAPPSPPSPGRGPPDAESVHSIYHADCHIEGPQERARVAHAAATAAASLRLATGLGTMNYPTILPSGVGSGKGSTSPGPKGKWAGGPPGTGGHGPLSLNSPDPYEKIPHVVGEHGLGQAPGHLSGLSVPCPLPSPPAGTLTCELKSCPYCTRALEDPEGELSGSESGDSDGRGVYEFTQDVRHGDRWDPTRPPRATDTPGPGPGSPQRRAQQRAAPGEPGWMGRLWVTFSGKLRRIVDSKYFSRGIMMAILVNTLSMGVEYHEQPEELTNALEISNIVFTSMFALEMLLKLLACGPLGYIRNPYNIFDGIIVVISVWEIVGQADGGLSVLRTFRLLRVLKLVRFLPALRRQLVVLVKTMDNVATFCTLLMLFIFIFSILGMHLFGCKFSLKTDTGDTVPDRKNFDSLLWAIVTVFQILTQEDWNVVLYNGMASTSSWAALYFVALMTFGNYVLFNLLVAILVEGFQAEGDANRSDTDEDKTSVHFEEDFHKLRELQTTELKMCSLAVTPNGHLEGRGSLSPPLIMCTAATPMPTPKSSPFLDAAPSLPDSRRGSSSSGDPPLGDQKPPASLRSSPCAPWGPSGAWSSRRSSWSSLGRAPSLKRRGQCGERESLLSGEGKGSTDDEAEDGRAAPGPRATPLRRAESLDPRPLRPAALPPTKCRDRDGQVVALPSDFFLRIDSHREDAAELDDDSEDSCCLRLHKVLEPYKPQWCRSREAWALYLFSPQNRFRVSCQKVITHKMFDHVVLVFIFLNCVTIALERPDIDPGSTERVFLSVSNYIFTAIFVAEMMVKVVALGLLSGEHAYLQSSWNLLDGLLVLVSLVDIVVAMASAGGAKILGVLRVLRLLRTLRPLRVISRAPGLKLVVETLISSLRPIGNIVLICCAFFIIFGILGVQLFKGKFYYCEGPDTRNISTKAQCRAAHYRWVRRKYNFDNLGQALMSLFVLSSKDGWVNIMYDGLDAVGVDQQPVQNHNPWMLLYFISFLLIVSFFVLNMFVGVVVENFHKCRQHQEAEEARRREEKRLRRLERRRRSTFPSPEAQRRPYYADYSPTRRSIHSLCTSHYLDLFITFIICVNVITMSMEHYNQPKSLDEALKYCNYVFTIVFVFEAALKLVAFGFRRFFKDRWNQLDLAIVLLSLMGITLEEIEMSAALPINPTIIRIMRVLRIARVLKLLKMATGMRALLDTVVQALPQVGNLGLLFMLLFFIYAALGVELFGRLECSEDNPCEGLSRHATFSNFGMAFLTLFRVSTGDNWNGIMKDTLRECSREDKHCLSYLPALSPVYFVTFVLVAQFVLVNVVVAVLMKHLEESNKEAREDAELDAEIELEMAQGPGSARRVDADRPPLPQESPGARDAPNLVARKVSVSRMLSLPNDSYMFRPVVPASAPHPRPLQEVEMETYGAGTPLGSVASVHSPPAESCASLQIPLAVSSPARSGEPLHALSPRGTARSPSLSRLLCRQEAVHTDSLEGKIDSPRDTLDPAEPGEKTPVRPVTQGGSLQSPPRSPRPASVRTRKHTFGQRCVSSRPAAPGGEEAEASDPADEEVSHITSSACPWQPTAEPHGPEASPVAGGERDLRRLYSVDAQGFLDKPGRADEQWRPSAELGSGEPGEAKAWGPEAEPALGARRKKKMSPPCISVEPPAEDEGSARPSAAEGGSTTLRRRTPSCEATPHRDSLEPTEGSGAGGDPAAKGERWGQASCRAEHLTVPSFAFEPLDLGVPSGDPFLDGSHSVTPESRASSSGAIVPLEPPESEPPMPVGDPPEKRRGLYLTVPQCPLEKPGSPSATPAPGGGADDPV

What is called inhibition is how much of the control response was suppressed. On to `O=C(CNC(=O)[C@@H]1C[C@H]1c1nc2ccccc2[nH]1)Nc1ccc(C(F)(F)F)cc1` (relative stereo) [Example 20, Trans-2-(1H-benzo[d]imidazol-2-yl)-N-(2-oxo-2-((4-(trifluoromethyl)phenyl)amino)ethyl) cyclopropane-1-carboxamide], for which the IC50 at human Cav3.2 channel [1] lay within 0.1 to 1 µM. The inhibition at 0.3 µM on human Cav3.2 channel [2] (setting [3]) was 39%. Moreover, the inhibition at 3 µM at human Cav3.2 channel [2] stood at 32%.

With `O=C(NC1(C(=O)Nc2ccc(C(F)(F)F)cc2)CC1)[C@@H]1C[C@H]1c1nc2ccccc2[nH]1` (relative stereo) [Example 21, Trans-1-(2-(1H-benzo[d]imidazol-2-yl)cyclopropane-1-carboxamido)-N-(4-(trifluoromethyl)phenyl) cyclopropane-1-carboxamide], at human Cav3.2 channel [1], the IC50 lay in the range of 0.1 to 1 µM. On human Cav3.2 channel [2] (setting [3]), the inhibition at 0.3 µM was 51%. Further, on human Cav3.2 channel [2], the inhibition at 3 µM was 41%.

For `CCCc1ccc(NC(=O)C(C)NC(=O)C2CC2c2nc3ccccc3[nH]2)cc1` (single isomer, unassigned) [Example 1A, Trans-2-(1H-benzo[d]imidazol-2-yl)-N-(1-oxo-1-((4-propylphenyl)amino)propan-2-yl) cyclopropane-1-carboxamide], the IC50 at human Cav3.2 channel [1] lay within 0.1 to 1 µM. For the same molecule, the inhibition at 0.3 µM on human Cav3.2 channel [2] (setting [3]) turned out to be 86%.

As to `CC(NC(=O)C1CC1c1nc2ccccc2[nH]1)C(=O)Nc1ccc(C(F)(F)F)cc1` (single isomer, unassigned) [Example 4A, Trans-2-(1H-benzo[d]imidazol-2-yl)-N-(1-oxo-1-((4-(trifluoromethyl)phenyl)amino)propan-2-yl) cyclopropane-1-carboxamide], on human Cav3.2 channel [1], the IC50 fell in the range of 0.1 to 1 µM. For the same molecule, the inhibition at 0.3 µM at human Cav3.2 channel [2] (setting [3]) is 43%. At human Cav3.2 channel [2], the inhibition at 3 µM worked out at 38%.

As for `CC(NC(=O)C1CC1c1nc2ccccc2[nH]1)C(=O)Nc1ccc(C(F)(F)F)cc1` (single isomer, unassigned) [Example 4B, Trans-2-(1H-benzo[d]imidazol-2-yl)-N-(1-oxo-1-((4-(trifluoromethyl)phenyl)amino)propan-2-yl) cyclopropane-1-carboxamide], the IC50 on human Cav3.2 channel [1] was 0.1 to 1 µM. In addition, on human Cav3.2 channel [2] (0.3 μM test compound, holding potential −80 mV, depolarization to −20 mV, 0.3 µM), the “Cav3.2 channel current inhibition rate in test compound of 0.3 μM (holding potential of −80 mV) (%)” value was 23%.

Regarding `CC(NC(=O)C1CC1c1nc2ccccc2[nH]1)C(=O)Nc1ccc(C(C)(C)C)cc1` (single isomer, unassigned) [Example 7A, Trans-2-(1H-benzo[d]imidazol-2-yl)-N-(1-((4-(tert-butyl)phenyl)amino)-1-oxopropan-2-yl) cyclopropane-1-carboxamide], at human Cav3.2 channel [1], the IC50 fell in the range of 0.1 to 1 µM. Besides, on human Cav3.2 channel [2] (setting [3]), the inhibition at 0.3 µM is 30%.

With `CC(NC(=O)C1CC1c1nc2ccccc2[nH]1)C(=O)Nc1cnc(Br)cn1` (single isomer, unassigned) [Example 18A, Trans-2-(1H-benzo[d]imidazol-2-yl)-N-(1-((5-bromopyrazin-2-yl)amino)-1-oxopropan-2-yl) cyclopropane-1-carboxamide], on human Cav3.2 channel [1], the IC50 lay in the range of 0.1 to 1 µM. Also, on human Cav3.2 channel [2] (setting [3]), the inhibition at 0.3 µM came out at 46%.

As to `O=C(NC1(C(=O)Nc2cccc(C(F)(F)F)c2)CC1)[C@H]1C[C@@H]1c1nc2ccccc2[nH]1` [Example 22, 1-((1S, 2S)-2-(1H-Benzo[d]imidazol-2-yl)cyclopropane-1-carboxamido)-N-(3-(trifluoromethyl)phenyl) cyclopropane-1-carboxamide], at human Cav3.2 channel [1], the IC50 was at most 0.1 µM. Besides, the inhibition at 0.3 µM on human Cav3.2 channel [2] (setting [3]) is 95%.

As for `O=C(NC1(C(=O)Nc2cc(Cl)cc(Cl)c2)CC1)[C@H]1C[C@@H]1c1nc2ccccc2[nH]1` [Example 35, 1-((1S, 2S)-2-(1H-Benzo[d]imidazol-2-yl)cyclopropane-1-carboxamido)-N-(3,5-dichlorophenyl) cyclopropane-1-carboxamide], at human Cav3.2 channel [1], the IC50 fell in the range of 0.1 to 1 µM.

Regarding `O=C(NC1(C(=O)Nc2cccc(C(F)(F)F)c2)CCC1)[C@H]1C[C@@H]1c1nc2ccccc2[nH]1` [Example 36, 1-((1S, 2S)-2-(1H-Benzo[d]imidazol-2-yl)cyclopropane-1-carboxamido)-N-(3-(trifluoromethyl)phenyl) cyclobutane-1-carboxamide], on human Cav3.2 channel [1], the IC50 was at most 0.1 µM.

Take `CC(C)C[C@@H](NC(=O)[C@H]1C[C@@H]1c1nc2ccccc2[nH]1)C(=O)Nc1cccc(C(F)(F)F)c1` [Example 37, (1S, 2S)-2-(1H-Benzo[d]imidazol-2-yl)-N—((R)-4-methyl-1-oxo-1-((3-(trifluoromethyl)phenyl)amino)pentan-2-yl) cyclopropane-1-carboxamide]: the IC50 at human Cav3.2 channel [1] lay in the range of 0.1 to 1 µM.

Turning to `O=C(CNC(=O)[C@H]1C[C@@H]1c1nc2ccccc2[nH]1)Nc1cccc(C(F)(F)F)c1` [Example 39, (1S, 2S)-2-(1H-Benzo[d]imidazol-2-yl)-N-(2-oxo-2-((3-(trifluoromethyl)phenyl)amino)ethyl) cyclopropane-1-carboxamide], the IC50 at human Cav3.2 channel [1] is at most 0.1 µM.

For the molecule `O=C(NC1(C(=O)Nc2cccc(C(F)(F)F)c2)CC1)[C@H]1C[C@@H]1c1nc2ccccc2n1C1CC1` [Example 40, 1-((1S, 2S)-2-(1-Cyclopropyl-1H-benzo[d]imidazol-2-yl)cyclopropane-1-carboxamido)-N-(3-(trifluoromethyl)phenyl) cyclopropane-1-carboxamide], the IC50 at human Cav3.2 channel [1] was at most 0.1 µM.

For the molecule `O=C(NC1(C(=O)Nc2cccc(C(F)(F)F)c2F)CC1)[C@H]1C[C@@H]1c1nc2ccccc2[nH]1` [Example 41, 1-((1S, 2S)-2-(1H-Benzo[d]imidazol-2-yl)cyclopropane-1-carboxamido)-N-(2-fluoro-3-(trifluoromethyl)phenyl) cyclopropane-1-carboxamide], at human Cav3.2 channel [1], the IC50 is 0.1 to 1 µM.

`O=C(NC1(C(=O)Nc2cc(F)cc(C(F)(F)F)c2)CC1)[C@H]1C[C@@H]1c1nc2ccccc2[nH]1` [Example 42, 1-((1S, 2S)-2-(1H-Benzo[d]imidazol-2-yl)cyclopropane-1-carboxamido)-N-(3-fluoro-5-(trifluoromethyl)phenyl) cyclopropane-1-carboxamide]: the IC50 on human Cav3.2 channel [1] lay in the range of 0.1 to 1 µM.

For `O=C(NC1(C(=O)Nc2cccc(OC(F)(F)F)c2)CC1)[C@H]1C[C@@H]1c1nc2ccccc2[nH]1` [Example 43, 1-((1S, 2S)-2-(1H-Benzo[d]imidazol-2-yl)cyclopropane-1-carboxamido)-N-(3-(trifluoromethoxy)phenyl) cyclopropane-1-carboxamide], the IC50 at human Cav3.2 channel [1] was at most 0.1 µM.

Turning to `C[C@@H](NC(=O)C1CC1c1nc2ccccc2[nH]1)c1cnc(OCC(F)(F)F)cn1` (some centres unmarked) [RQ-00311651, reference compound], the inhibition at 0.3 µM on human Cav3.2 channel [2] (setting [3]) amounted to 17%. Further, the inhibition at 3 µM on human Cav3.2 channel [2] worked out at 14%.
